Assay type in all cases: cell-based, human
The test system of assay [1] is A375 cells. In words: Release of cytochrome-C, ELISA of supernatant. The conditions noted are these: 35 μM; 5, 15, 45 min. The procedure:
A375 cells were seeded as with HMGB1 studies, and treated with 35 μM for different time points (5, 15, 45). Supernatants were collected and concentrated as with HMGB1 studies, and samples from the supernatants were analyzed using a 4.5 hour solid form Cytochrome C-Elisa kit (R&D Systems, USA, #DCTC0) following the manufacturer's description. Shortly thereafter, a 50% diluted sample was analyzed and the optical density was determined using a microplate reader set at 450 nm, and […]. A standard curve was generated for each set of samples assayed. Samples were run in four parallels, and the cytochrome-c released into the supernatant was expressed as a fold over the level of cytochrome-c in the supernatant of untreated cells.

For another assay, the system named is A375 melanoma cells. In words: Live cell imaging, bright field confocal microscopy. The conditions noted are these: at an IC-50 value, majority of the cells. The procedure:
Live cell imaging with unlabeled cells-A375 cells were seeded at 10,000 cells/well in a complete media in Nunc Lab-Tec 8-wells chambered covered glass (Sigma) precoated with 25 μg/ml human fibronectin (Sigma) that were allowed to adhere overnight. Cells were washed twice with a serum-free RPMI, treated with peptide dissolved in RPMI and investigated using Bright on a Leica TCS SP5 confocal microscope, with a 63X/1.2W objective. The microscope was equipped with an incubation chamber with CO2 and temperature control.

The next assay deals with HL-60/ADR. In words: In vitro cytotoxic activity, MTS assay; resistance index. The conditions noted are these: HL-60/ADR vs sensitive HL-60 (doxorubicin resistance). On the procedure: Tumor cells were grown as adherent monolayers or as suspensions at 37° C. in a humidified atmosphere (5% CO2, 95% air). The culture medium was RPMI 1640 containing 2 mM L-glutamine (Lonza, Belgium) and supplemented with 10% fetal bovine serum (FBS, Lonza). For experimental use, the adherent cells were detached from the culture flask by a 5-minute treatment with trypsin-versene (Lonza), diluted in Hanks' medium without calcium or magnesium (Lonza) and neutralized by addition of complete culture medium. Cells were counted in a hemocytometer and their viability was assessed by 0.25% trypan blue exclusion.
Tumor cells were plated in 96-well flat-bottom microtitration plates (Nunc, Dutscher, Brumath, France) and incubated at 37° C. for 24 hours before treatment in 190 μl of drug-free culture medium supplemented or not with 10% FBS for adherent or suspension growing cell lines, respectively.
The adherent cell lines were washed once with 200 μl FBS-free culture medium before treatment. Tumor cells were incubated for 4 hours with 10 concentrations of compounds in ¼ dilution step with a top dose of 400 μM (range 4×10^−4 to 4×10^−10 M), with 1% (final concentration) Triton X-100 as positive control and FBS-free culture medium as negative control. The cells (190 μl) were incubated in a 200 μl final volume of FBS-free culture medium containing test substances at 37° C. under 5% CO2.
Three independent experiments were performed, each concentration being tested in quadruplicate. Control cells were treated with vehicle alone. At the end of treatments, the cytotoxic activity was evaluated by a MTS assay (see § 3.3).
Like MTT, MTS is bioreduced by cells into a formazan product that is directly soluble in culture medium without processing, unlike MTT.
At the end of the cells treatment, 40 μl of a 0.22 μm filtered freshly combined solution of MTS (20 ml at 2 mg/ml, Ref G1111, Batch 235897, Exp 03/2009, Promega, Charbonnières, France) and PMS (1 ml at 0.92 mg/ml, Ref P9625, Batch 065K0961, Sigma) in Dulbecco's Phosphate Buffered Saline (DPBS, Ref 17-513Q, Batch 6MB0152, Cambrex), were added in each well. Culture plates were incubated for 2 h at 37° C. Absorbency (OD) were measured at 490 nm in each well using VICTOR^3TM 1420 multilabeled counter (Wallac, PerkinElmer, Courtaboeuf, France).
[formula] • The OD values are the mean of 4 experimental measurements. • IC50: drug concentration to obtain a 50% inhibition of cell proliferation.
The dose-response curves were plotted using XLFit 3 (IDBS, United Kingdom). The IC50 determination values were calculated using the XLFit 3 software from semi-log curves. Individual IC50 determination values as well as mean and SD values were generated.
Resistance index was calculated using the following formula: […]
Resistance index was calculated for each compound for each couple of sensitive and resistant cell lines. Individual resistance index was calculated when IC50 values of both sensitive and corresponding resistant cell lines were determined within same experiment. In addition, resistance index was also calculated ratio of mean IC50 values obtained during three independent experiments.

Assay [2] has as its system A375 cells. Description: Release of HMGB1, Western blot of lysate and supernatant. Conditions: 35 μM, 5-60 min. The procedure: A375 cells were seeded with 3×10^5 cells/well in 6-well plates in a complete media, and allowed to adhere overnight. Cells were treated with LTX-315 or LTX-328 at 35 μM, and incubated at 37° C. and 5% CO2 for different time points (5, 10, 15, 30, 60 min), and negative controls were serum-free RPMI-1650. Supernatants (S) were collected and centrifuged at 1,400 g for five minutes, and cell lysates (L) were harvested after washing with PBS twice and then subsequently lysed using a 4× Sample buffer (Invitrogen, number), 0.1 M DTT (Sigma number) and water. Supernatants were concentrated using Amicon Ultra 50K centrifugal filters (Millipore UFC505024), and the cell lysate was sonicated. Both supernatants and lysate were boiled and resolved in a 10% sodium dodecyl sulfate polyacrylamide gel electrophoresis (SDS-PAGE), and then electro transferred to a polyvindiline difluoride (PVDF) membrane (Millipore). The membrane was blocked in 5% milk and incubated with the HMGB1 antibody (rabbit, polyclonal, abcam ab 18256); the membrane was then rinsed several times with TBST, incubated with a horseradish peroxidase (HRP)-conjugated secondary antibody (abcam ab6721), rinsed again with TBST and then developed using WB Luminol Reagent (Santa Cruz Biotechnology, Heidelberg, Germany).

Non-standard residues stand in square brackets, D forms with d. Residues, ends and D or L forms follow the SMILES beside them. Dip = N[C@H](C(=O)O)C(c1ccccc1)c1ccccc1

With `NCCCC[C@H](NC(=O)[C@@H](NC(=O)[C@H](Cc1c[nH]c2ccccc12)NC(=O)[C@H](CCCCN)NC(=O)[C@H](CCCCN)NC(=O)[C@H](Cc1c[nH]c2ccccc12)NC(=O)[C@H](Cc1c[nH]c2ccccc12)NC(=O)[C@H](CCCCN)NC(=O)[C@@H](N)CCCCN)C(c1ccccc1)c1ccccc1)C(N)=O` [LTX-315, K-K-W-W-K-K-W-Dip-K-NH2] (H-KKWWKKW[Dip]K-NH2), the “cytochrome-C in the supernatant vs untreated control cells” value in the assay on A375 cells [1] was “three times more cytochrome-C in the supernatant compared to untreated control cells”. Further, the “time to cell collapse with extrusion of cytoplasmic content” value in the assay on A375 melanoma cells lay within 15 to 60 min. In the assay with HL-60/ADR, the “Resistance index (RI)” value was found to be 1.45. Also, the “HMGB1 translocation from cell lysate to supernatant” value in the assay with A375 cells [2] was “gradual translocation from the cell lysate to the supernatant detected”.

The values above are taken from patent US12239686B2, “Immune checkpoint inhibitor combinations” (LYTIX BIOPHARMA AS, priority 2014, dated 2025).
